According to ChEMBL document CHEMBL5335775, “Bioisosteric replacement of 1H-1,2,3-triazole with 1H-tetrazole ring enhances anti-leukemic activity of (5-benzylthiazol-2-yl)benzamides” (Eur J Med Chem, 2023):
Calls of active or inactive are those of the source. The calls are words filed in the database; no cut-off is given here.

Tests used:
K562 [1] = experiment: Antiproliferative activity against human K562 cells assessed as inhibition of cell proliferation measured after 72 hrs by MTT assay; format: functional, cell-based; details: K562, 72 h
[2] = Antiproliferative activity against J774.2 cells assessed as inhibition of cell proliferation measured after 72 hrs by MTT assay; format: toxicity, cell-based; details: mouse
[3] = Antiproliferative activity against NIH3T3 cells assessed as inhibition of cell proliferation measured after 72 hrs by MTT assay; format: toxicity, cell-based; details: mouse
[4] = Antiproliferative activity against human HaCaT cells assessed as inhibition of cell proliferation measured after 72 hrs by MTT assay; format: toxicity, cell-based
K562 [5] = experiment: Anticancer activity against human K562 cells assessed as cell growth at 10^-5 M incubated for 48 hrs by SRB assay relative to control; format: functional; details: K562, 48 h, dose 1 10^-5M, read-out: Activity
Hep 3B2 = experiment: Antiproliferative activity against human Hep3B cells assessed as inhibition of cell proliferation; format: functional, cell-based
DU-145 = experiment: Antiproliferative activity against human DU-145 cells assessed as inhibition of cell proliferation incubated for 3 days by Alamar blue dye based assay; format: functional; details: DU-145, 72 h
K562 [6] = experiment: Induction of DNA damage in human K562 cells assessed as olive tail moment level at 70 nM incubated for 24 hrs by comet assay (reference value: 0.2); format: functional
K562 [7] = experiment: Induction of DNA damage in human K562 cells assessed as tail DNA level at 70 nM incubated for 24 hrs by comet assay (reference value: 0.5 to 0.6 %); format: functional
K562 [8] = experiment: Induction of DNA damage in human K562 cells assessed as olive tail moment level at 700 nM incubated for 24 hrs by comet assay (reference value: 0.2); format: functional
K562 [9] = experiment: Induction of DNA damage in human K562 cells assessed as tail DNA level at 700 nM incubated for 24 hrs by comet assay (reference value: 0.5 to 0.6 %); format: functional
K562 [10] = experiment: Induction of pro-apoptotic morphological changes in human K562 cells at 70 to 700 nM incubated for 24 hrs by Hoescht-33342 staining based analysis; format: functional, cell-based; details: dose 70-700 nM
HeLa = experiment: Antiproliferative activity against human HeLa cells assessed as inhibition of cell proliferation measured after 48 hrs by MTT assay; format: functional, cell-based
NCI/ADR-RES = experiment: Antiproliferative activity against human NCI-ADR-RES cells assessed as inhibition of cell proliferation measured after 48 hrs by SRB assay; format: functional, cell-based
UACC-62 = experiment: Antiproliferative activity against human UACC-62 cells assessed as inhibition of cell proliferation measured after 48 hrs by SRB assay; format: functional, cell-based; details: UACC-62, 48 h
KM12 = experiment: Antiproliferative activity against human KM12 cells assessed as inhibition of cell proliferation measured after 48 hrs by SRB assay; format: functional, cell-based; details: KM12, 48 h
MDA-MB-468 = experiment: Antiproliferative activity against human MDA-MB-468 cells assessed as inhibition of cell proliferation measured after 48 hrs by SRB assay; format: functional, cell-based; details: MDA-MB-468, 48 h
OVCAR-4 = experiment: Antiproliferative activity against human OVCAR-4 cells assessed as inhibition of cell proliferation measured after 48 hrs by SRB assay; format: functional, cell-based; details: OVCAR-4, 48 h
BT-549 = experiment: Antiproliferative activity against human BT-549 cells assessed as inhibition of cell proliferation measured after 48 hrs by SRB assay; format: functional, cell-based; details: BT-549, 48 h
CAKI-1 = experiment: Antiproliferative activity against human CAKI-1 cells assessed as inhibition of cell proliferation measured after 48 hrs by SRB assay; format: functional, cell-based; details: CAKI-1, 48 h
PC-3 = experiment: Antiproliferative activity against human PC-3 cells assessed as inhibition of cell proliferation measured after 48 hrs by SRB assay; format: functional, cell-based; details: PC-3, 48 h
SK-MEL-5 = experiment: Antiproliferative activity against human SK-MEL-5 cells assessed as inhibition of cell proliferation measured after 48 hrs by SRB assay; format: functional, cell-based; details: SK-MEL-5, 48 h

| Structure (SMILES) | IC50 (K562 [1]) | IC50 at 72 h [2] | IC50 at 72 h [3] | IC50 at 72 h [4] | further results |
| --- | --- | --- | --- | --- | --- |
| Cc1nnnn1-c1ccc(C(=O)Nc2ncc(Cc3ccccc3)s2)cc1 | > 100 µM | 3.61 µM | > 100 µM | 6 µM | – |
| COc1ccc(Cc2cnc(NC(=O)c3ccc(-n4cnnn4)cc3)s2)cc1 | > 100 µM | 8.22 µM | > 100 µM | > 100 µM | growth at 10 µM (K562 [5]): 36.7% |
| CC(C)c1nnnn1-c1ccc(C(=O)Nc2ncc(Cc3ccccc3)s2)cc1 | > 100 µM | 8.94 µM | > 100 µM | 5.59 µM | – |
| O=C(CCc1ccco1)Nc1ncc(Cc2ccccc2)s1 | – | – | – | – | IC50 (Hep 3B2): 0.089 µM |
| COc1ccc(Cc2cnc(NC(=O)/C=C/c3ccco3)s2)cc1 | – | – | – | – | IC50 (DU-145): 0.015 µM |
| COc1cccc2c1C(=O)c1c(O)c3c(c(O)c1C2=O)C[C@@](O)(C(=O)CO)C[C@@H]3O[C@H]1C[C@H](N)[C@H](O)[C@H](C)O1 [DOXORUBICIN] | – | 0.64 µM | 0.79 µM | 0.86 µM | Activity (K562 [6]): 0.4; Activity (K562 [7]): 0.7%; Activity (K562 [8]): 1; Activity (K562 [9]): 3.5%; Activity (K562 [10]): inactive |
| O=C(Nc1ncc(Cc2ccccc2)s1)c1ccc(-n2cnnn2)cc1O | > 100 µM | 22.2 µM | > 100 µM | > 100 µM | – |
| CC(C)(C)c1nc(NC(=O)CN2CCN(c3ccc(O)cc3)CC2)sc1Cc1ccc(Cl)cc1 | – | – | – | – | IC50 (HeLa): 1.6 µM |
| Cc1cnnn1-c1ccc(C(=O)Nc2ncc(Cc3ccccc3)s2)cc1 | – | – | – | – | IC50 (NCI/ADR-RES): 4.06 µM; IC50 (UACC-62): 3.28 µM; IC50 (KM12): 3.68 µM; IC50 (MDA-MB-468): 2.02 µM; IC50 (OVCAR-4): 3.02 µM; IC50 (BT-549): 3.99 µM; IC50 (CAKI-1): 4.7 µM; IC50 (PC-3): 4.26 µM; IC50 (SK-MEL-5): 2.8 µM |
